Data on two compounds can be found in US20010049390A1, “Prevention of pest feed harm on a fibrous product” (priority 2000, published 2001).

The test system of assay [1] is middle instar larvae webbing clothes moth (Tineola bisselliella). In words: Test Example 2 / Comparative Example 2: pest feed harm on treated wool muslin preserved for 2 weeks before infestation. As to conditions: preserved at 25±2° C. for 2 weeks before test, 10 larvae, 7 days of infestation, repeats 1-5. More on the design: key: “+++” for a heavy level of the pest feed harm; “++” for a normal level of the pest feed harm; “+” for a minor level of the pest feed harm; “−” for no visual feed harm. The format is in vivo. As for the experimental part:
One-tenth (0.1) milliliter of acetone solutions composed of 0.1% w/v and 0.3% w/v of the present compound, respectively, was eye-dropped with a pipette onto wool muslins.
Each of the resulting wool muslins was then preserved at 25±2° C. for 2 weeks. After the 2 weeks, each of the wool muslins was placed on the bottom portion of a plastic container.
Ten (10) middle instar larvae webbing clothes moth (Tineola bisselliella) were then placed, respectively, into the plastic container and a nylon net was set on the top portion of the plastic container to cover the opening thereof. After 7 days of infestation under 25±2° C., the pest feed harm on the wool muslins were examined. The standards to the pest feed harm were “+++” for a heavy level of the pest feed harm, “++” for a normal level of the pest feed harm, “+” for a minor level of the pest feed harm and “−” for no visual feed harm. The tests were repeated 5 times.
(§1) Further, as a control, a test utilizing a wool muslin to which no composition was applied was similarly conducted. The control was repeated twice.
One-tenth (0.1) milliliter of acetone solutions composed of 0.1% w/v and 0.3% w/v of Comparative compound 1, respectively, was eye-dropped with a pipette onto wool muslins.
Ten (10) middle instar larvae webbing clothes moth (Tineola bisselliella) were then placed, respectively, into the plastic container and a nylon net was set on the top portion of the plastic container to cover the opening thereof. After 7 days of infestation under 25±2° C., the pest feed harm on the wool muslins were examined. The standards to the pest feed harm were “+++” for a heavy level of the pest feed harm, “++” for a normal level of the pest feed harm, “+” for a minor level of the pest feed harm and “−” for no visual pest feed harm. The comparative experiments were repeated 5 times.

For assay [2] the test system is unchanged. The assay can be described thus: Test Example 1 / Comparative Example 1: pest feed harm on treated wool muslin, infested after drying. The format is in vivo. Further details: key: “+++” for a heavy level of the pest feed harm; “++” for a normal level of the pest feed harm; “+” for a minor level of the pest feed harm; “−” for no visual pest feed harm. As to conditions: 10 larvae, 7 days of infestation at 25±2° C., repeats 1-5.
Source text: One-tenth (0.1) milliliter of acetone solutions composed of 0.1% w/v and 0.3% w/v of 1-methyl-2-nitro-3-[(3-tetrahydrofuryl)methyl]guanidine (hereinafter referred to as the present compound), respectively, was eye-dropped with a pipette onto wool muslins.
Each of the resulting wool muslins was then allowed to dry and was placed on the bottom portion of a plastic container.
Ten (10) middle instar larvae webbing clothes moth (Tineola bisselliella) were then placed, respectively, into the plastic container, and a nylon net was set on the top portion of the plastic container to cover the opening thereof. After 7 days of infestation under 25±2° C., the pest feed harm on the wool muslins were examined. The standards to the pest feed harm were “+++” for a heavy level of the pest feed harm, “++” for a normal level of the pest feed harm, “+” for a minor level of the pest feed harm and “−” for no visual pest feed harm. The tests were repeated 5 times.
as §1
One-tenth (0.1) milliliter of acetone solutions composed of 0.1% w/v and 0.3% w/v of (E)-1-ethynyl-2-methyl-pent-2-enyl-(1R)-cis,trans-chrysanthemate (hereinafter referred to as comparative compound 1), respectively, was eye-dropped with a pipette onto wool muslins.
Ten (10) middle instar larvae webbing clothes moth (Tineola bisselliella) were then placed, respectively, into the plastic container, and a nylon net was set on the top portion of the plastic container to cover the opening thereof. After 7 days of infestation under 25±2° C., the pest feed harm on the wool muslins were examined. The standards to the pest feed harm were “+++” for a heavy level of the pest feed harm, “++” for a normal level of the pest feed harm, “+” for a minor level of the pest feed harm and “−” for no visual pest feed harm. The comparative experiments were repeated 5 times.

Setting [3] is: application amount 25 mg/m^2 on wool muslin.
Setting [4] is: application amount 75 mg/m^2 on wool muslin.

`C#CC(OC(=O)C1C(C=C(C)C)C1(C)C)/C(C)=C/CC` (mixture of isomers) [Comparative compound 1, (E)-1-ethynyl-2-methyl-pent-2-enyl-(1R)-cis,trans-chrysanthemate]: the Pest feed harm entry was “+ + +” in assay [1] (setting [3]); “+ + +” in assay [1] (setting [4]); “+ + and +” in assay [2] (setting [3]); “+ and + +” in assay [2] (setting [4]).
As for `CNC(=N[N+](=O)[O-])NCC1CCOC1` (centres unmarked) [Present compound, 1-methyl-2-nitro-3-[(3-tetrahydrofuryl)methyl]guanidine], the Pest feed harm result in assay [1] (setting [3]), in assay [1] (setting [4]), in assay [2] (setting [3]) and in assay [2] (setting [4]) was “−” throughout.
